EC50 data for 2 compounds are collected here from article PMC5814754, “Quantitative, Wide-Spectrum Kinase Profiling in Live Cells for Assessing the Effect of Cellular ATP on Target Engagement” (Cell Chemical Biology, 2018).

The EC50 is the midpoint of the concentration-response curve.

Common to all, as to experiment: Apparent affinity (EC50) of energy transfer probes by titration onto live HEK293 cells expressing kinase/Nluc fusions (Table S1)
What all share (type): binding

For experiment [1], the target named is full-length kinase/Nluc fusion proteins (Homo sapiens, UniProt Q8IYT8). The conditions noted are these: ULK2 (NP_001136082), Nluc orientation N; read-out: Probe EC50.
Experiment [2] has as its target full-length kinase/Nluc fusion proteins (Homo sapiens, UniProt Q13237). The conditions noted are these: PRKG2, Nluc C; read-out: Probe EC50.
In experiment [3] the target is full-length kinase/Nluc fusion proteins (Homo sapiens, UniProt O15146). Particulars: MUSK, Nluc C; read-out: Probe EC50.
The target in experiment [4] is full-length kinase/Nluc fusion proteins (Homo sapiens, UniProt Q13470). Particulars: TNK1 (NP_003976), Nluc orientation N; read-out: Probe EC50.
Experiment [5] concerns the target full-length kinase/Nluc fusion proteins (Homo sapiens, UniProt Q9UM73). The conditions noted are these: ALK, Nluc C; read-out: Probe EC50.
The target of experiment [6] is full-length kinase/Nluc fusion proteins (Homo sapiens, UniProt Q9Y463). The conditions noted are these: DYRK1B, Nluc N; read-out: Probe EC50.
Chain of full-length kinase/Nluc fusion proteins (Homo sapiens, UniProt Q9Y463) (Q9Y463 whole entry, the tested form may be a part): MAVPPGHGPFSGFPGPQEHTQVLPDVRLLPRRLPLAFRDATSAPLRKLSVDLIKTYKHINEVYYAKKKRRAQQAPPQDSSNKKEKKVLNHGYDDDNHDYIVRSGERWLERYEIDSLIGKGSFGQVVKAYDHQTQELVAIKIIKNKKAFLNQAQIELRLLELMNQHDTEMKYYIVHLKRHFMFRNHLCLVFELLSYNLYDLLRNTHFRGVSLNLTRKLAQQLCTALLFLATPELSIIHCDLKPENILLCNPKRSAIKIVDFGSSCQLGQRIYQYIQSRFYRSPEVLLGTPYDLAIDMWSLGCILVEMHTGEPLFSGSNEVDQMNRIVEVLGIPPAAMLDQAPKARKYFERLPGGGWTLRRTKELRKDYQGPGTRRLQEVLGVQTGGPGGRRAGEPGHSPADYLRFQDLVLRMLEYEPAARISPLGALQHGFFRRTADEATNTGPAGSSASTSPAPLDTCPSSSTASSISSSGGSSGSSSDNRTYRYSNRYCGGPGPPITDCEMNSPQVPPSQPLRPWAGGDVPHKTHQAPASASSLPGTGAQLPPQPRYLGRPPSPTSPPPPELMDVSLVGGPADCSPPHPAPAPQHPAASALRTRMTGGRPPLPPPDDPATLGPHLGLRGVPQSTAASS
The target in experiment [7] is full-length kinase/Nluc fusion proteins (Homo sapiens, UniProt O14965). Particulars: AURKA, Nluc C; read-out: Probe EC50.
Experiment [8] concerns the target full-length kinase/Nluc fusion proteins (Homo sapiens, UniProt P51955). The conditions noted are these: NEK2, Nluc N; read-out: Probe EC50.
Experiment [9] addresses full-length kinase/Nluc fusion proteins (Homo sapiens, UniProt P11309). Particulars: PIM1, Nluc C; read-out: Probe EC50.
Experiment [10] addresses full-length kinase/Nluc fusion proteins (Homo sapiens, UniProt Q9NY57). Particulars: STK32B (NP_060871), Nluc orientation N; read-out: Probe EC50.
Experiment [11] has as its target full-length kinase/Nluc fusion proteins (Homo sapiens, UniProt P30291). Particulars: WEE1 (NP_003381), Nluc orientation C; read-out: Probe EC50.
Experiment [12] has as its target full-length kinase/Nluc fusion proteins (Homo sapiens, UniProt O75676). Particulars: RPS6KA4 (NP_001287731), Nluc orientation N; read-out: Probe EC50.
Experiment [13] deals with full-length kinase/Nluc fusion proteins (Homo sapiens, UniProt Q8IVH8). The conditions noted are these: MAP4K3, Nluc N; read-out: Probe EC50.
Experiment [14] concerns the target full-length kinase/Nluc fusion proteins (Homo sapiens, UniProt Q9BVS4). The conditions noted are these: RIOK2, Nluc N; read-out: Probe EC50.
Experiment [15] concerns the target full-length kinase/Nluc fusion proteins (Homo sapiens, UniProt P16591). Particulars: FER, Nluc C; read-out: Probe EC50.
Experiment [16] addresses full-length kinase/Nluc fusion proteins (Homo sapiens, UniProt P30530). Particulars: AXL, Nluc C; read-out: Probe EC50.
In experiment [17] the target is full-length kinase/Nluc fusion proteins (Homo sapiens, UniProt Q9UK32). The conditions noted are these: RPS6KA6 (NP_055311), Nluc orientation N; read-out: Probe EC50.
The target in experiment [18] is full-length kinase/Nluc fusion proteins (Homo sapiens, UniProt O75716). The conditions noted are these: STK16 (NP_001317142), Nluc orientation N; read-out: Probe EC50.
Chain of full-length kinase/Nluc fusion proteins (Homo sapiens, UniProt O75716) (O75716 whole entry, the tested form may be a part): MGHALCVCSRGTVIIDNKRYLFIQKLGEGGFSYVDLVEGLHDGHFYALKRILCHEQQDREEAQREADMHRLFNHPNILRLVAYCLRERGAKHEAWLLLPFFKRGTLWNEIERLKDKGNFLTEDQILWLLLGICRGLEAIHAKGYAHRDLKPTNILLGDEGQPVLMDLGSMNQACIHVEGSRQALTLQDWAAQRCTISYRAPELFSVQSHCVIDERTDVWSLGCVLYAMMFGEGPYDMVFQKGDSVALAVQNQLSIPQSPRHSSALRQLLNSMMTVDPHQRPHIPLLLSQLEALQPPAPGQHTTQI
Experiment [19] addresses full-length kinase/Nluc fusion proteins (Homo sapiens, UniProt Q13131). The conditions noted are these: PRKAA1, Nluc N; read-out: Probe EC50.
Experiment [20] has as its target full-length kinase/Nluc fusion proteins (Homo sapiens, UniProt Q9UHD2). Particulars: TBK1 (NP_037386), Nluc orientation N; read-out: Probe EC50.
Experiment [21] addresses full-length kinase/Nluc fusion proteins (Homo sapiens, UniProt O96013). The conditions noted are these: PAK4, Nluc C; read-out: Probe EC50.
For experiment [22], the target named is full-length kinase/Nluc fusion proteins (Homo sapiens, UniProt P51817). The conditions noted are these: PRKX, Nluc C; read-out: Probe EC50.
The target of experiment [23] is full-length kinase/Nluc fusion proteins (Homo sapiens, UniProt Q13882). Particulars: PTK6, Nluc C; read-out: Probe EC50.
Experiment [24] has as its target full-length kinase/Nluc fusion proteins (Homo sapiens, UniProt P07333). Particulars: CSF1R, Nluc C; read-out: Probe EC50.
In experiment [25] the target is full-length kinase/Nluc fusion proteins (Homo sapiens, UniProt P42685). The conditions noted are these: FRK, Nluc C; read-out: Probe EC50.
Chain of full-length kinase/Nluc fusion proteins (Homo sapiens, UniProt P42685) (P42685 whole entry, the tested form may be a part): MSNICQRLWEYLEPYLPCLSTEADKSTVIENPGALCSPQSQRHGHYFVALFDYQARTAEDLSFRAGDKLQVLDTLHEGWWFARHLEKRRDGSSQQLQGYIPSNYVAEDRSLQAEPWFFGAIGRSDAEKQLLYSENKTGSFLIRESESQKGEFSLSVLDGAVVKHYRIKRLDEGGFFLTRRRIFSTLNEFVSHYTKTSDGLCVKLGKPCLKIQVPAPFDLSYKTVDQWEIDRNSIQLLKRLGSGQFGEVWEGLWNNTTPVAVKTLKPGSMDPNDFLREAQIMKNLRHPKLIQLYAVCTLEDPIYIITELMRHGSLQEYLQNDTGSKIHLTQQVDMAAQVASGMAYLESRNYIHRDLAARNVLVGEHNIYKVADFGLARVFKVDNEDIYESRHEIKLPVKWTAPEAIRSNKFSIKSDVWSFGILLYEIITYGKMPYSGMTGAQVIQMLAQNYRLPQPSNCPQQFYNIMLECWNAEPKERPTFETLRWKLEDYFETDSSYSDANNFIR
Experiment [26] has as its target full-length kinase/Nluc fusion proteins (Homo sapiens, UniProt Q07912). The conditions noted are these: TNK2 (NP_001010938), Nluc orientation C; read-out: Probe EC50.
Experiment [27] concerns the target full-length kinase/Nluc fusion proteins (Homo sapiens, UniProt P54760). Particulars: EPHB4, Nluc C; read-out: Probe EC50.
Experiment [28] has as its target full-length kinase/Nluc fusion proteins (Homo sapiens, UniProt P07947). Particulars: YES1 (NP_005424), Nluc orientation C; read-out: Probe EC50.
Experiment [29] has as its target full-length kinase/Nluc fusion proteins (Homo sapiens, UniProt O15197). Particulars: EPHB6, Nluc C; read-out: Probe EC50.
For experiment [30], the target named is full-length kinase/Nluc fusion proteins (Homo sapiens, UniProt O14976). Particulars: GAK, Nluc N; read-out: Probe EC50.
The target in experiment [31] is full-length kinase/Nluc fusion proteins (Homo sapiens, UniProt P29323). The conditions noted are these: EPHB2, Nluc C; read-out: Probe EC50.
The target of experiment [32] is full-length kinase/Nluc fusion proteins (Homo sapiens, UniProt P29317). The conditions noted are these: EPHA2, Nluc C; read-out: Probe EC50.

Structures are written as SMILES. Where only a bound is given, the exact number is not on record here.

Chain of full-length kinase/Nluc fusion proteins (Homo sapiens, UniProt Q9NY57) (Q9NY57 whole entry, the tested form may be a part): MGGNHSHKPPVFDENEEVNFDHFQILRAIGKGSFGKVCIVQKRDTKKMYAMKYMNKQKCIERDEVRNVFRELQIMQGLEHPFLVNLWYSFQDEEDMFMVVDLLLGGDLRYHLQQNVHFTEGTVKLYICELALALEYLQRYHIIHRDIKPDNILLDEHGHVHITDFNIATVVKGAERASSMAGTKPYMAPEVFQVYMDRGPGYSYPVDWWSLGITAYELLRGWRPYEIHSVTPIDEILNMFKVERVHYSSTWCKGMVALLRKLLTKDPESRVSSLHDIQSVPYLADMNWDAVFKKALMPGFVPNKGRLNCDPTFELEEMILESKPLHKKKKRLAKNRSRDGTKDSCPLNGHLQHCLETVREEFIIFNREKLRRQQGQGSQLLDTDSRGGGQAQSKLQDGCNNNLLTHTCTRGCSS
Chain of full-length kinase/Nluc fusion proteins (Homo sapiens, UniProt Q9UM73) (Q9UM73 19-1620): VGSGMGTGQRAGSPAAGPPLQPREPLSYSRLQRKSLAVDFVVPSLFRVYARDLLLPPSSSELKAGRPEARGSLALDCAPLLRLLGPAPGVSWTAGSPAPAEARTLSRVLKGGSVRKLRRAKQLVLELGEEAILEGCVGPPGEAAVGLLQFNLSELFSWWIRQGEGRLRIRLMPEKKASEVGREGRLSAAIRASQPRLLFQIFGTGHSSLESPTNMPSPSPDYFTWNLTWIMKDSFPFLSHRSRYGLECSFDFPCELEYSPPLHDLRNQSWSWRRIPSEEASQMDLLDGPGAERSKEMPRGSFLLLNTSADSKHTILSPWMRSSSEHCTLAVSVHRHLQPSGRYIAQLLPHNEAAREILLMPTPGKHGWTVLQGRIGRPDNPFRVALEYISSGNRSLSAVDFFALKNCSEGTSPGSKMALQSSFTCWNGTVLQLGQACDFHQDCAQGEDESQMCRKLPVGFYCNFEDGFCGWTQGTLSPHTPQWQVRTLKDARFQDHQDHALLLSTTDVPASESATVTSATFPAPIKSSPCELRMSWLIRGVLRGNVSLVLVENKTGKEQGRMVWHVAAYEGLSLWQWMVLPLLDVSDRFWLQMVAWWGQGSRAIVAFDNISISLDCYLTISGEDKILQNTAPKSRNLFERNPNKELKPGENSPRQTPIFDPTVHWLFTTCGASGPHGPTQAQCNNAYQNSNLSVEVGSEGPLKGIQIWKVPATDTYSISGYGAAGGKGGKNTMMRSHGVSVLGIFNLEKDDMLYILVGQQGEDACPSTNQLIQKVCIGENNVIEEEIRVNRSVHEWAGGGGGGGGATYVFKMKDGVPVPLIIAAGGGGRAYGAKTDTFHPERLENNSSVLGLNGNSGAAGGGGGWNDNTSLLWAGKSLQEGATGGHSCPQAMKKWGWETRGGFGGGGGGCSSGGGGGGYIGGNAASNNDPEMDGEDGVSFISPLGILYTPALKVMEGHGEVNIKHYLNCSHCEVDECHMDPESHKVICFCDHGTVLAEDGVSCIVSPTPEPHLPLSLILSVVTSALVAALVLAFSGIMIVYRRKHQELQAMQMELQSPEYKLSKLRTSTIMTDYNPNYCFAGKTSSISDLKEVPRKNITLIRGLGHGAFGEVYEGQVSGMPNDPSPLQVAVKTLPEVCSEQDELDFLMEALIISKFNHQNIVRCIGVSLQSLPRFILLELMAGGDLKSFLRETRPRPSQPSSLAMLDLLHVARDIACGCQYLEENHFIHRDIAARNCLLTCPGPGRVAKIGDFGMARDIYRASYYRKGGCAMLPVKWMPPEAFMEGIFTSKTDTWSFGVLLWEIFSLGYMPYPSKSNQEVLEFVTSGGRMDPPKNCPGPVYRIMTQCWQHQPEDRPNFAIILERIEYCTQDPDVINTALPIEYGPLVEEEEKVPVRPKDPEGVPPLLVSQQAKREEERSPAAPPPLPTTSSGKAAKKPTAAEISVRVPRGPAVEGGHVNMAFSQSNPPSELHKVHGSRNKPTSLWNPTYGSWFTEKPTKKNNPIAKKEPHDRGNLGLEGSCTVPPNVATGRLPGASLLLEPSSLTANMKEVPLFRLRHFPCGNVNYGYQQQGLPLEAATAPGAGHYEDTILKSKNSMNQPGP
Chain of full-length kinase/Nluc fusion proteins (Homo sapiens, UniProt Q9UHD2) (Q9UHD2 whole entry, the tested form may be a part): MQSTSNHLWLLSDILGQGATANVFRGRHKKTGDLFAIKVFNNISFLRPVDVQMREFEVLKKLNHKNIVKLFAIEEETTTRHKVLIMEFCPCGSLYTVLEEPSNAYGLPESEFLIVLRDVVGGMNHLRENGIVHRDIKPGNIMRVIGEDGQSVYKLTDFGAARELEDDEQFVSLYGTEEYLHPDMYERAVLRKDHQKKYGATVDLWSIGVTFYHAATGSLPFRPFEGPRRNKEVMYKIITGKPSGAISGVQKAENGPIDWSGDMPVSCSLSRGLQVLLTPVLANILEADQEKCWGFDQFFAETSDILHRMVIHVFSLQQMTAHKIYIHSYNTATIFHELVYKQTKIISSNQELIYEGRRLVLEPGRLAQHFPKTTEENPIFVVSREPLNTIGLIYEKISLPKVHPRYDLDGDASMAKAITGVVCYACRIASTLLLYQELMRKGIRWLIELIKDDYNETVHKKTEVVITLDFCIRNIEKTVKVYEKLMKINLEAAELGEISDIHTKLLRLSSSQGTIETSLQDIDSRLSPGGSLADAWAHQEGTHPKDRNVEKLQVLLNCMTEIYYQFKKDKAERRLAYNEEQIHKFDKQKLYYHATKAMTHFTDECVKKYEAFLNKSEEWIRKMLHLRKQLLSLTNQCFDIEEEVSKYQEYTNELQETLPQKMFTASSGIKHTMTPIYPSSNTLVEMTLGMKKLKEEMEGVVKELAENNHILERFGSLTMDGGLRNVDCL
Chain of full-length kinase/Nluc fusion proteins (Homo sapiens, UniProt Q13131) (Q13131 whole entry, the tested form may be a part): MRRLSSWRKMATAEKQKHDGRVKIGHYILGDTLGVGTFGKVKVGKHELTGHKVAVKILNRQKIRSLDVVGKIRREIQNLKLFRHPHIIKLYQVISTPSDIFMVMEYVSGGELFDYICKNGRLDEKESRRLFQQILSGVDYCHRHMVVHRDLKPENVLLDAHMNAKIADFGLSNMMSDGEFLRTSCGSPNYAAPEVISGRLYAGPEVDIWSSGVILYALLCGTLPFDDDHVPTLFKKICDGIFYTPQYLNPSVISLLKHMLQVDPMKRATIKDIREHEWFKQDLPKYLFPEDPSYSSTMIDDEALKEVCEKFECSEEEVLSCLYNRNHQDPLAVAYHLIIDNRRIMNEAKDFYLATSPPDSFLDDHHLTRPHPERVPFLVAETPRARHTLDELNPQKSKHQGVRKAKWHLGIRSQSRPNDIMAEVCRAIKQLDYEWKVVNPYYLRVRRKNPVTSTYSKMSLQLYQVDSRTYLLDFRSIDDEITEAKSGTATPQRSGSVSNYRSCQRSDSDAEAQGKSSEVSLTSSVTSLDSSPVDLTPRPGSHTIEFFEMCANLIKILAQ

In the case of `CNC(=O)c1ccccc1Nc1nc(Nc2ccc(N3CCN(C(=O)CCOCCOCCOCCOCCNC(=O)CCc4ccc5n4[B-](F)(F)[N+]4=C(c6ccc[nH]6)C=CC4=C5)CC3)cc2)ncc1Cl` [Energy Transfer Probe 5, 2-((2-((4-(4-(1-amino-3,6,9,12-tetraoxapentadecan-15-oyl)piperazin-1-yl)phenyl)amino)-5-chloropyrimidin-4-yl)amino)-N-methylbenzamide-NanoBRET 590], the EC50 in experiment [1] was greater than 1000 nM; in experiment [2], greater than 1000 nM; in experiment [3] it was greater than 1000 nM; in [4], 50 nM; in experiment [5], greater than 1000 nM; in [6], greater than 1000 nM. Besides, the EC50 is 40 nM in [7]; greater than 1000 nM in [8]; greater than 1000 nM in experiment [9]; 600 nM in [10]; 50 nM in [11]; 100 nM in [12]. The EC50 was greater than 1000 nM in experiment [13]; greater than 1000 nM in [14]; greater than 1000 nM in [15]; 200 nM in experiment [16]; 400 nM in [17]; 300 nM in experiment [18]. Further, the concentration giving a half-maximal response (EC50) in [19] is 300 nM; in [20] it was 400 nM; in [21] it was greater than 1000 nM; in [22], greater than 1000 nM.

With `Cc1nc(Nc2ncc(C(=O)Nc3c(C)cccc3Cl)s2)cc(N2CCN(CCOCCNC(=O)CCc3ccc4n3[B-](F)(F)[N+]3=C(c5ccc[nH]5)C=CC3=C4)CC2)n1` [Energy Transfer Probe 6, 2-((6-(4-(2-(2-aminoethoxy)ethyl)piperazin-1-yl)-2-methylpyrimidin-4-yl)amino)-N-(2-chloro-6-methylphenyl)thiazole-5-carboxamide-NanoBRET 590], the EC50 in [23] amounted to 200 nM; in experiment [24] it was 200 nM; in [25], 400 nM; in experiment [26] it was 100 nM; in [27] it was 10 nM; in experiment [28], 600 nM. For the same compound, the EC50 was greater than 1000 nM in experiment [29], 500 nM in [30], 20 nM in experiment [31] and 60 nM in experiment [32].
